Reference: publication PMC10043345, “Discovery of BAR502, as potent steroidal antagonist of leukemia inhibitory factor receptor for the treatment of pancreatic adenocarcinoma” (Frontiers in Oncology, 2023)
Entries after “also recorded” stand apart in the source; their conditions may differ.

How the values were obtained:
LIF/LIFR complex = target: T1, LIF/LIFR complex (Homo sapiens, UniProt P42702); test: Alpha Screen inhibition of LIFR/LIF binding (cell-free); settings: for effect on LIF/LIFR complex formation (LIFR antagonism), in words: cell-free Alpha Screen; for IC50: cell-free, LIFR 4.5 nM, biotinylated LIF 9 nM, read-out: LIFR IC50 AlphaScreen (inhibition of LIFR/LIF binding)
T1 construct: purchased Sino Biological (LIFR); R&D Systems (LIF)
T1 sequence (P42702 45-833 limits assumed): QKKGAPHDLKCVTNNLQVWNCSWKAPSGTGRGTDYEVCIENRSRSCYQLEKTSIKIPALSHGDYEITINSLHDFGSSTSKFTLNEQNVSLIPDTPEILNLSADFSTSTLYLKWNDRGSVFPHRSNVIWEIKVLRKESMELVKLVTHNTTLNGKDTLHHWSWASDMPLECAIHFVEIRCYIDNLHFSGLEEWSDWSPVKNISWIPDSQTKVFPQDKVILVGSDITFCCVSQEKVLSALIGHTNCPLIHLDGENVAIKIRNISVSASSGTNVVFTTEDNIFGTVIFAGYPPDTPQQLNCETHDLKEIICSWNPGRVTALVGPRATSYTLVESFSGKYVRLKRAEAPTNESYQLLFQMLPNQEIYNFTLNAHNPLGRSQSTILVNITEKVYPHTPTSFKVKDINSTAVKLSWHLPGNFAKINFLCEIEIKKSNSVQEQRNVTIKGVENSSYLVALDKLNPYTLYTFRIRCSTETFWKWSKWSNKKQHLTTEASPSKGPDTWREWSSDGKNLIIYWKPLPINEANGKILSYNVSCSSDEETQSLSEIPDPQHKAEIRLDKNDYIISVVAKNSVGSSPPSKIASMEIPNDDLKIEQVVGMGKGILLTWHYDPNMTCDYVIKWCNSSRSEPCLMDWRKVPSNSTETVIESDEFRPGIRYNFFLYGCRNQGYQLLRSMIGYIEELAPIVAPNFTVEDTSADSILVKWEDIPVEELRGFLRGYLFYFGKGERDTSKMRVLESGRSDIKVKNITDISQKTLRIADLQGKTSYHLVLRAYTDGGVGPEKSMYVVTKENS
Experimental: Recombinant human LIFR (His Tag) and biotinylated recombinant human LIF were purchased from Sino Biologicals (Sino Biological Europe GmbH, Dusseldorf, Germany) and R&D Systems (Abingdon, UK), respectively, and both were reconstituted as required by the manufacturer. […] The assay was carried out in white, low-volume, 384-well AlphaPlates (PerkinElmer, Waltham, MA, USA) using a final volume of 25 µL and an assay buffer containing 25 mM Hepes (pH 7.4), 100 mM NaCl, and 0.005% Kathon. The concentration of DMSO in each well was maintained at 5%. […] Then, LIF was added (biotinylated, final concentration 9 nM), and the samples were incubated for 15 min prior to adding His-Tag acceptor beads (final concentration 20 ng/µL) for 30 min. Then, streptavidin donor beads were added (final concentration 20 ng/µL), and the plate was incubated in the dark for 2 h and then read in an EnSpire Alpha multimode plate reader (PerkinElmer, Waltham, MA, USA).

MIA PaCa-2 cells = test: Scratch wound healing assay; format: cell-based, human; settings: LIF 10 ng/mL alone; 0, 24, 48 h
Experimental: MIA PaCa-2 cells were seeded in DMEM complete medium at […] cells/well into 24-well plate and used at 70-80% confluence rate. The assay was performed as previously described ([20]), particularly on the day 1, the cell monolayers were gently scraped vertically with a new 0.2 mL pipette tip across the centre of the well. After scratching, the well was gently washed twice with PBS (Euroclone, Milan, Italy) to remove the detached cells and cell debris and finally fresh medium containing LIF (10 ng/mL) alone or in combination with BAR502 (10 µM) or EC359 (25 nM) was added into each well. Immediately after scratch creation, the 24-plate was placed under a phase-contrast microscope and the first image of the scratch acquired (T0) with using a OPTIKAM Pro Cool 5 – 4083.CL5 camera. Cells were grown for additional 48 h and images taken at 24h (T1) and 48 h (T2). The gap distance between scarps borders was quantified by assessing that area between the two margins of the scratches. All experiments were performed in triplicate.

Row | Compound | effect on LIF/LIFR complex formation (LIFR antagonism), in words (LIF/LIFR complex) | IC50 (LIF/LIFR complex) | reduction of the scratch area (wound closure) (MIA PaCa-2 cells)
1 | C[C@H](CCC(=O)O)[C@H]1CC[C@H]2[C@@H]3[C@H](O)C[C@@H]4C[C@H](O)CC[C@]4(C)[C@H]3CC[C@]12C [CDCA, Chenodeoxycholic acid] | slight, thought significant, inhibitory effect; also recorded: weak LIFR antagonists | 48 µM | –
2 | C[C@H](CCC(=O)O)[C@H]1CC[C@H]2[C@@H]3CC[C@@H]4C[C@H](O)CC[C@]4(C)[C@H]3CC[C@]12C [LCA, Lithocholic acid] | slight, thought significant, inhibitory effect; also recorded: weak LIFR antagonists | 48.3 µM | –
3 | Leukemia Inhibitory factor [LIF] | – | – | ≈ 16%
